Earlier results in patent US9795630B2, “Compositions and methods for inducing or enhancing connective tissue repair” (Glenpharma AB, priority 2009, dated 2017).

System: superficial digital flexor tendon injuries
Settings: horses; Dyson 1977/1997 & 2004

SMILES: N#CCCN.N#CCCN.O=C(O)/C=C/C(=O)O [BAPN, B-aminoproprionitrile fumarate]
- benefit of intralesional treatment (healing, recovery time, tendon repair) compared with controlled exercise alone: failed to show any benefit
